From patent publication US5389627A, “Cephem compounds” (priority 1993, dated 1995)
≈ marks a conversion by molar mass, not a printed value.

Legend:
Test in all cases: In vitro antibacterial activity, minimum inhibitory concentration
Assay type in all cases: cell-based
E.cloacae C4008 = conditions: Enterobacter cloacae; E.cloacae C4008; read-out: Minimum Inhibitory Concentration (MIC)
From the text: (§1) As reference compounds, Cefotaxime (CTX), Ceftazidime (CAZ) and Cefpirome (CPR) were employed.

E.cloacae C4009 = conditions: Enterobacter cloacae; E.cloacae C4009; read-out: Minimum Inhibitory Concentration (MIC)
From the text: as §1

E.coli ATCC10536 = conditions: Escherichia coli; E.coli ATCC10536; read-out: Minimum Inhibitory Concentration (MIC)
From the text: as §1

E.coli ATCC25922 = conditions: Escherichia coli; E.coli ATCC25922; read-out: Minimum Inhibitory Concentration (MIC)
From the text: as §1

E.coli C4002 = conditions: Escherichia coli; E.coli C4002; read-out: Minimum Inhibitory Concentration (MIC)
From the text: as §1

K.oxytoca C4022 = conditions: Klebsiella oxytoca; K.oxytoca C4022; read-out: Minimum Inhibitory Concentration (MIC)
From the text: as §1

K.pneumoniae ATCC10031 = conditions: Klebsiella pneumoniae; K.pneumoniae ATCC10031; read-out: Minimum Inhibitory Concentration (MIC)
From the text: as §1

K.pneumoniae C1040 = conditions: Klebsiella pneumoniae; K.pneumoniae C1040; read-out: Minimum Inhibitory Concentration (MIC)
From the text: as §1

MRSA C2208 = conditions: Staphylococcus aureus; MRSA C2208; read-out: Minimum Inhibitory Concentration (MIC)
From the text: as §1

P.aeruginosa ATCC10145 = conditions: Pseudomonas aeruginosa; P.aeruginosa ATCC10145; read-out: Minimum Inhibitory Concentration (MIC)
From the text: as §1

P.aeruginosa ATCC27853 = conditions: Pseudomonas aeruginosa; P.aeruginosa ATCC27853; read-out: Minimum Inhibitory Concentration (MIC)
From the text: as §1

P.aeruginosa C2027 = conditions: Pseudomonas aeruginosa; P.aeruginosa C2027; read-out: Minimum Inhibitory Concentration (MIC)
From the text: as §1

P.aeruginosa C4070 = conditions: Pseudomonas aeruginosa; P.aeruginosa C4070; read-out: Minimum Inhibitory Concentration (MIC)
From the text: as §1

P.mirabilis ATCC25933 = conditions: Proteus mirabilis; P.mirabilis ATCC25933; read-out: Minimum Inhibitory Concentration (MIC)
From the text: as §1

P.rettgeri ATCC9919 = conditions: Providencia rettgeri; P.rettgeri ATCC9919; read-out: Minimum Inhibitory Concentration (MIC)
From the text: as §1

S.Faecalis ATCC29212 = conditions: Enterococcus faecalis
From the text: as §1

S.aureus ATCC29213 = conditions: Staphylococcus aureus; S.aureus ATCC29213; read-out: Minimum Inhibitory Concentration (MIC)
From the text: as §1

S.aureus C4036 = conditions: Staphylococcus aureus; S.aureus C4036; read-out: Minimum Inhibitory Concentration (MIC)
From the text: as §1

S.aureus Smith = conditions: Staphylococcus aureus; S.aureus Smith; read-out: Minimum Inhibitory Concentration (MIC)
From the text: as §1

S.epidermidis ATCC12228 = conditions: Staphylococcus epidermidis; S.epidermidis ATCC12228; read-out: Minimum Inhibitory Concentration (MIC)
From the text: as §1

S.marcescens ATCC27117 = conditions: Serratia marcescens; S.marcescens ATCC27117; read-out: Minimum Inhibitory Concentration (MIC)
From the text: as §1

S.marcescens C1052 = conditions: Serratia marcescens; S.marcescens C1052; read-out: Minimum Inhibitory Concentration (MIC)
From the text: as §1

S.pyogenes ATCC 8668 = conditions: Streptococcus pyogenes, ATCC8668; S.pyogenes ATCC 8668; read-out: Minimum Inhibitory Concentration (MIC)
From the text: as §1

S.pyogenes C4003 = conditions: Streptococcus pyogenes; S.pyogenes C4003; read-out: Minimum Inhibitory Concentration (MIC)
From the text: as §1

S.typhimurium C4045 = conditions: Salmonella enterica; S.typhimurium C4045; read-out: Minimum Inhibitory Concentration (MIC)
From the text: as §1

Row | SMILES | MIC (E.cloacae C4008) [µg/mL] | MIC (E.cloacae C4009) [µg/mL] | MIC (E.coli ATCC10536) [µg/mL] | MIC (E.coli ATCC25922) [µg/mL] | MIC (E.coli C4002) [µg/mL] | MIC (K.oxytoca C4022) [µg/mL] | MIC (K.pneumoniae ATCC10031) [µg/mL] | MIC (K.pneumoniae C1040) [µg/mL] | MIC (MRSA C2208) [µg/mL] | MIC (P.aeruginosa ATCC10145) [µg/mL] | MIC (P.aeruginosa ATCC27853) [µg/mL] | MIC (P.aeruginosa C2027) [µg/mL] | MIC (P.aeruginosa C4070) [µg/mL] | MIC (P.mirabilis ATCC25933) [µg/mL] | MIC (P.rettgeri ATCC9919) [µg/mL] | MIC (S.Faecalis ATCC29212) [µg/mL] | MIC (S.aureus ATCC29213) [µg/mL] | MIC (S.aureus C4036) [µg/mL] | MIC (S.aureus Smith) [µg/mL] | MIC (S.epidermidis ATCC12228) [µg/mL] | other results
1 | CO/N=C(\C(=O)N[C@@H]1C(=O)N2C(C(=O)[O-])=C(C[n+]3ccc4[nH]c(=NC#N)[nH]c4c3)CS[C@H]12)c1nsc(N)n1 [Ex. 4, 7-β-[(Z)-2-(5-Amino-1,2,4-thiadiazol-3-yl)-2-methoxyiminoacetamido]-3-[2-(1H,3H)-cyanoimine-imidazo[4,5-c]pyridiniummethyl]-3-cephem-4-carboxylate] | 0.05 (≈ 0.09 µM) | 0.05 (≈ 0.09 µM) | 0.05 (≈ 0.09 µM) | 0.1 (≈ 0.18 µM) | 0.1 (≈ 0.18 µM) | 12.5 (≈ 22.5 µM) | 0.013 (≈ 0.0234 µM) | 0.025 (≈ 0.045 µM) | > 100 | 12.5 (≈ 22.5 µM) | 25 (≈ 45 µM) | 6.25 (≈ 11.2 µM) | 12.5 (≈ 22.5 µM) | 0.025 (≈ 0.045 µM) | 0.013 (≈ 0.0234 µM) | > 100 | 3.13 (≈ 5.63 µM) | 3.13 (≈ 5.63 µM) | 3.13 (≈ 5.63 µM) | 1.56 (≈ 2.81 µM) | MIC (S.marcescens ATCC27117): 0.05 µg/mL (≈ 0.09 µM); MIC (S.marcescens C1052): 0.05 µg/mL (≈ 0.09 µM); MIC (S.pyogenes ATCC 8668): 0.007 µg/mL (≈ 0.0126 µM); MIC (S.pyogenes C4003): 0.007 µg/mL (≈ 0.0126 µM); MIC (S.typhimurium C4045): 0.05 µg/mL (≈ 0.09 µM)
2 | CO/N=C(\C(=O)N[C@@H]1C(=O)N2C(C(=O)[O-])=C(C[n+]3ccc4c(c3)NC(=C[N+](=O)[O-])N4)CS[C@H]12)c1nsc(N)n1 [Ex. 2, 7-β-[(Z)-2-(5-Amino-1,2,4-thiadiazol-3-yl)-2-methoxyiminoacetamido]-3-[2-(1H,3H)-nitromethylen-yl-imidazo[4,5-c]-pyridiniummethyl]-3-cephem-4-carboxylate] | 0.05 (≈ 0.087 µM) | 0.2 (≈ 0.348 µM) | 0.05 (≈ 0.087 µM) | 0.1 (≈ 0.174 µM) | 0.1 (≈ 0.174 µM) | 12.5 (≈ 21.8 µM) | 0.05 (≈ 0.087 µM) | 0.05 (≈ 0.087 µM) | > 100 | 50 (≈ 87 µM) | > 100 | 6.25 (≈ 10.9 µM) | > 100 | 0.1 (≈ 0.174 µM) | 0.025 (≈ 0.0435 µM) | > 100 | 1.56 (≈ 2.72 µM) | 3.13 (≈ 5.45 µM) | 3.13 (≈ 5.45 µM) | 1.56 (≈ 2.72 µM) | MIC (S.marcescens ATCC27117): 0.2 µg/mL (≈ 0.348 µM); MIC (S.marcescens C1052): 0.2 µg/mL (≈ 0.348 µM); MIC (S.pyogenes ATCC 8668): 0.013 µg/mL (≈ 0.0226 µM); MIC (S.pyogenes C4003): 0.007 µg/mL (≈ 0.0122 µM); MIC (S.typhimurium C4045): 0.2 µg/mL (≈ 0.348 µM)
3 | Nc1nc(/C(=N/OCF)C(=O)N[C@@H]2C(=O)N3C(C(=O)[O-])=C(C[n+]4ccc5[nH]c(=O)[nH]c5c4)CS[C@H]23)ns1 [Ex. 9, 7-β-[(Z)-2-(5-Amino-1,2,4-thiadiazol-3-yl)-2-fluoromethoxyiminoacetamido]-3-[2-(1H, 3H)-oxo-imidazo[4,5-c]pyridiniummethyl]-3-cephem-4-carboxylate] | 0.013 (≈ 0.0237 µM) | 0.013 (≈ 0.0237 µM) | 0.007 (≈ 0.0127 µM) | 0.026 (≈ 0.0473 µM) | 0.004 (≈ 0.00728 µM) | 1.56 (≈ 2.84 µM) | 0.002 (≈ 0.00364 µM) | 0.004 (≈ 0.00728 µM) | > 100 | 1.56 (≈ 2.84 µM) | 0.78 (≈ 1.42 µM) | 0.78 (≈ 1.42 µM) | 3.13 (≈ 5.7 µM) | 0.025 (≈ 0.0455 µM) | 0.004 (≈ 0.00728 µM) | > 100 | 1.56 (≈ 2.84 µM) | 3.13 (≈ 5.7 µM) | 1.56 (≈ 2.84 µM) | 0.78 (≈ 1.42 µM) | MIC (S.marcescens ATCC27117): 0.007 µg/mL (≈ 0.0127 µM); MIC (S.marcescens C1052): 0.004 µg/mL (≈ 0.00728 µM); MIC (S.pyogenes ATCC 8668): 0.007 µg/mL (≈ 0.0127 µM); MIC (S.pyogenes C4003): 0.007 µg/mL (≈ 0.0127 µM); MIC (S.typhimurium C4045): 0.007 µg/mL (≈ 0.0127 µM)
